Laboratory results taken from US20240209456A1, “METHODS AND COMPOSITIONS RELATED TO CELL-CYCLE RNA's” (BETH ISRAEL DEACONESS MEDICAL CENTER, priority 2021, published 2024).
Entries after “also recorded” stand apart in the source; their conditions may differ.

How the values were obtained:
H2A.Z = assay: nascent ChIP-qPCR (nasChIP) with H2A.Z antibody; type: cell-based, human; settings: for restoration of H2A.Z distribution at c-MYC locus after DRB reversal: HL-60, 2 hrs after DRB wash-out, MG149 200 μM, TH1834 500 μM
Protocol: (§1) To confirm the results of the ChIP-Seq, and to track the deposition of the H2A.Z, acH2A.Z nascent chromatin immunoprecipitation (nasChIP-PCR) was performed with the antibodies to H2A.Z, acH2A.Z and TIP60, as nasChIP-PCR can be used to track histone deposition. Cells were synchronized with a double thymidine block, released into S Phase and treated with DRB for 2 hrs. The medium was supplemented with the EdU DNA analog to enable collection of nascent chromatin DNA (FIG. 4A). […] The results of these experiments provide an important link between the suppressed c-MYC SPEARs expression and the reduced levels of the replacement histone H2A.Z, as an even greater degree of the loss of the acetylated acH2A.Z forms at the TSS of the c-MYC locus. Similar results were obtained for another gene locus, PU1 (FIG. 4F, right panels).
Cells were synchronized with a double thymidine block and released into S Phase with DMSO/DRB added. After 2 hours (during which H2A.Z levels remained unaffected, but SPEARs and mRNA levels drop, see FIG. 10A), cells were washed and then incubated for a further 2 hours with or without the TIP60 inhibitors. This interval is sufficient for the levels of both the c-MYC mRNAs and its SPEARs to be restored when the TIP60 inhibitors are absent (results shown in FIG. 11B). […] Collected RNAs were biotinylated by click chemistry, isolated on streptavidin beads and analyzed by nas-qRT-PCR (see “Methods” below for details; FIG. 8A; bottom panel).
To further confirm that SPEARs realize their c-MYC regulatory function directly through the TIP60/acH2A.Z pathway, the differences in chromatin occupancy of H2A.Z, acH2A.Z and TIP60 were assessed after inhibition of transcription (“DRB”), reversal of inhibition (“DRB REV”) and reversal of inhibition in the presence of the two TIP60 inhibitors, using nasChIP-qPCR. […] Furthermore, no enrichments of H2A.Z, acH2A.Z or TIP60 was detected within the Gene Desert locus (FIG. 11C). […]

TIP60 = TIP60 (Homo sapiens, UniProt Q92993); assay: nascent ChIP-qPCR (nasChIP) with TIP60 antibody; type: cell-based; parameters: endogenous in cells; host or cells: HL-60; settings: for restoration of TIP60 at c-MYC locus after DRB reversal: HL-60, 2 hrs after DRB wash-out, MG149 200 μM, TH1834 500 μM; for restoration of TIP60 enrichment at PU1 locus after DRB reversal: HL-60, MG149 and TH1834 treatments
Protocol: as §1
(§2) Cells were synchronized with a double thymidine block and released into S Phase with DMSO/DRB added. After 2 hours (during which H2A.Z levels remained unaffected, but SPEARs and mRNA levels drop, see FIG. 10A), cells were washed and then incubated for a further 2 hours with or without the TIP60 inhibitors. This interval is sufficient for the levels of both the c-MYC mRNAs and its SPEARs to be restored when the TIP60 inhibitors are absent (results shown in FIG. 11B). The medium was supplemented with the EU RNA and EdU DNA analogs to enable collection of nascent RNAs and newly formed chromatin that had escaped the drug-induced inhibition of transcription or acetylation. After 2 hours with the TIP60 inhibitors present (MG-149 at 200 μM and TH1834 at 500 μM), during which the levels of acH2A.Z dropped (see FIG. 11A), cells were crosslinked and subjected to nasChIP and nascent RNA expression analyses (nas-qRT-PCR) (FIG. 6B). Collected RNAs were biotinylated by click chemistry, isolated on streptavidin beads and analyzed by nas-qRT-PCR (see “Methods” below for details; FIG. 8A; bottom panel).
(§3) To further confirm that SPEARs realize their c-MYC regulatory function directly through the TIP60/acH2A.Z pathway, the differences in chromatin occupancy of H2A.Z, acH2A.Z and TIP60 were assessed after inhibition of transcription (“DRB”), reversal of inhibition (“DRB REV”) and reversal of inhibition in the presence of the two TIP60 inhibitors, using nasChIP-qPCR. […] By analyzing the nascent RNAs and chromatin, only the immediate changes in c-MYC expression and TIP60, acH2A.Z and H2A.Z occupancy were examined within the locus as imposed by the inhibition of transcription and/or acetylation. […] When the two HAT inhibitors are present, the reversal of transcriptional inhibition can only restore the enrichment levels of the unmodified H2A.Z and TIP60 (FIG. 6D; left and right panels), but not the levels of acH2A.Z (middle panel). […] Furthermore, no enrichments of H2A.Z, acH2A.Z or TIP60 was detected within the Gene Desert locus (FIG. 11C). […] Similar results were obtained for the PU.1 locus (FIG. 11D and FIG. 11E). These findings using nasChIP are in line with the general trend obtained globally by ChIP-Seq. (FIG. 4C).
(§4) Nascent RNA/DNA capture was performed using Click-iT Nascent RNA Capture Kit (ThermoFisher) according to the manufacturer's instructions with minor modifications. Briefly, 1. Labeling the cells with EU/EdU. 200 mM EU or 30 mM EdU stock solutions were added to the cells, to a final concentration 0.5 mM or 30 μM, respectively. 2. Incubation. The cells were incubated for 1 or 2 hours. 3. RNA/DNA isolation. The cells were harvested and the RNA/DNA were isolated and dissolved in 14 μL of H2O. 4. Biotinylation of RNA/DNA by Click reaction. Click-iT reaction cocktail (50 μL per reaction) was prepared accordingly to manufacturer's instructions: a mixture containing 1× Click-iT EU buffer; 2 mM CuSO4; 1 mM Biotin azide; 13.25 μL of the isolated RNA; 10 mM Click-iT reaction buffer additive 1; 12 mM Click-iT reaction buffer additive 2 was prepared. After adding each component, the reaction cocktail was gently mixed by vortexing. […]

acH2A.Z = assay: nascent ChIP-qPCR (nasChIP) with acH2A.Z antibody; type: cell-based, human; settings: for restoration of acH2A.Z at c-MYC locus after DRB reversal: HL-60, 2 hrs after DRB wash-out, MG149 200 μM, TH1834 500 μM; for restoration of acH2A.Z enrichment at PU1 locus after DRB reversal: HL-60, MG149 and TH1834 treatments
Protocol: as §1, §2, §3, §4

[1] = HL-60 released into S Phase, DRB 2 hrs

Sequence of TIP60 (Q92993 whole entry): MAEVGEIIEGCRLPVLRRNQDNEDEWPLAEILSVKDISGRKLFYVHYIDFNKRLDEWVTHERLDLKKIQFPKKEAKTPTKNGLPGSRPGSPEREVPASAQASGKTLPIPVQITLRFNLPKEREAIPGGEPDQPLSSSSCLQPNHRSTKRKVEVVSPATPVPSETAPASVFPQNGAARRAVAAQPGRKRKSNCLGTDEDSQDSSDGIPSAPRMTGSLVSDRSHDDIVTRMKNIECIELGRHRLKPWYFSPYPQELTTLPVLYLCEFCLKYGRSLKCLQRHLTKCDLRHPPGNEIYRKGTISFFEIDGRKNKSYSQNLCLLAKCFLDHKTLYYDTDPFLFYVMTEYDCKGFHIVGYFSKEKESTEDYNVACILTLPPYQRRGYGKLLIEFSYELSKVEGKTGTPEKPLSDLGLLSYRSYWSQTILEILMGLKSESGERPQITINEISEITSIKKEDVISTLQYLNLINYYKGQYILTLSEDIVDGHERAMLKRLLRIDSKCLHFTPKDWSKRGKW

SMILES	restoration of H2A.Z distribution at c-MYC locus after DRB reversal (H2A.Z)	restoration of TIP60 at c-MYC locus after DRB reversal (TIP60)	restoration of TIP60 enrichment at PU1 locus after DRB reversal (TIP60)	restoration of acH2A.Z at c-MYC locus after DRB reversal (acH2A.Z)	restoration of acH2A.Z enrichment at PU1 locus after DRB reversal (acH2A.Z)	H2A.Z enrichment at c-MYC locus (H2A.Z; [1])	TIP60 enrichment at PU1 locus (TIP60; HL-60, DRB treatment)	TIP60 enrichment at c-MYC locus (TIP60; [1])	acH2A.Z enrichment at PU1 locus (acH2A.Z; HL-60, DRB treatment)	acH2A.Z enrichment at c-MYC locus (acH2A.Z; [1])
O=C(O)Cn1nnc(-c2ccc(CN(CCCCOc3ccc(CN4CCCC4)cc3)CCc3ccccc3)cc2)n1 [TH1834]	only slightly affecting	only slightly affecting	without affecting	prevents the restoration	preventing the restoration					
CCCCCCCc1ccc(CCc2cccc(O)c2C(=O)O)cc1 [MG149]	only slightly affecting	only slightly affecting	without affecting	prevents the restoration	preventing the restoration					
OC[C@H]1O[C@@H](n2cnc3cc(Cl)c(Cl)cc32)[C@H](O)[C@@H]1O [DRB, 5,6-Dichlorobenzimidazole 1-β-D-ribofuranoside]						diminished enrichment; also recorded: partial loss	loss	diminished enrichment and loss	loss	diminished enrichment and loss
